Reference: patent US11173124B2, “Oral delivery of GLP-1 peptide analogs” (MEDIMMUNE LIMITED, priority 2017, dated 2021)
Where two headings read alike, the source gives them in different places.

Legend:
[1] = Caco-2 permeability assay, permeability coefficient Papp (Examples 1 and 2); type: in vitro ADME, human
Excerpt: The Caco-2 cell line is a continuous cell line of heterogeneous human epithelial colorectal adenocarcinoma cells, which when cultured under specific conditions, become differentiated and polarized such that their phenotype, morphologically and functionally, resembles the enterocytes lining the small intestine. Caco-2 cells express tight junctions, microvilli, and a number of enzymes and transporters that are characteristic of such enterocytes. Caco-2 cells are most commonly used as a tight junction monolayer that provides a physical and biochemical barrier to the passage of drugs and thus serves as an in vitro model of the human small intestinal mucosa to predict the absorption of orally administered drugs. Caco-2 permeability assays were performed by Cyprotex US, LLC (MA, USA) to assess the efficacy of different permeation enhancers. Caco-2 cells were grown on Transwell filters until a transepithelial electric resistance of ˜1000 ohms/cm^2 was achieved. The cells were incubated for three hours with media containing test samples on the apical (top) side of the cell layer, and with blank media on the basolateral (lower) side of the cell layer. Media from the apical and basolateral sides was collected separately after three hours and evaluated for the amount of peptide present on each side. Table 2 gives the permeability coefficient (Papp) of the various test samples, which include the SEQ ID NO:3 GLP-1 peptide in the presence of different excipients.
The apparent permeability coefficients (Papp) of all polypeptides were calculated using the following equation: Papp=dQ/dt×1/A C0
Where dQ/dt is the amount of solutes transported across the Caco-2 barrier in time dt, C0 is the solute concentration in the apical compartment at time zero, and A is the cross-sectional area of the epithelium in contact with apical solution.
The next Caco-2 study was performed to evaluate the ability of additional excipients to enhance the permeability of the SEQ ID NO:3 peptide across tight junction cell layers.

[2] = Canine site of absorption study, IntelliCap, SEQ ID NO:3 solution formulations (Example 10); type: in vivo, Beagle dogs; conditions: for bioavailability: Beagle, plasma; for bioavailability / AUC(0-t) / Cmax / Tmax: dog, pH 8, canine; for F: canine; for AUC(0-t) / Cmax / Tmax: in vivo
Excerpt: The IntelliCap® system, an electronic oral drug delivery and monitoring device, was used to determine regional absorption for solution formulations. In the form of a capsule, the IntelliCap® incorporates a microprocessor, battery, pH sensor, temperature sensor, radio frequency (RF) wireless transceiver, fluid pump, and drug reservoir. The IntelliCap® system can determine the drug's position in the gastrointestinal (GI) tract by a pH monitoring sensor in the capsule, thereby eliminating the need for in vivo imaging. This system was employed to assess the site of absorption of GLP-1 peptide analogs in the GI tract following oral delivery to canines (Beagle dogs). Solution formulations without permeation enhancer excipients were used as intravenous (IV) and subcutaneous (SC) controls in the study. In brief, solution formulations were prepared and transferred to the IntelliCap® capsule which was dosed to canines, wherein the formulation was released at a specific site in the GI tract.

[3] = First rat intraduodenal study, sodium caprate as permeation enhancer (Example 4); type: in vivo; conditions: for AUC / Cmax / Tmax / half-life: in vivo; for bioavailability: plasma
Protocol: Solution formulations comprising GLP-1 peptide analogs were injected into rats in the duodenum segment of the small intestine. The first ID study involved the use of sodium caprate as the permeation enhancer and the SEQ ID NO:3 GLP-1 peptide analog. Absolute bioavailability (% F) is a percentage-expressed measure of systemic drug exposure after oral, or in the current example intraduodenal, administration to the systemic exposure generated with intravenous (IV) administration of drug solution. Absolute bioavailability, (% F), is calculated as a percentage of systemic, or blood, drug concentration area under curve (AUC) of the AUC of IV administration adjusted to the amounts of drug given via these routes of administration.

[4] = po, 0.74 mg/kg, PO IntelliCap capsule-proximal small bowel, 8 mg/mL peptide, 10 mg/mL Na CDC, 2 mg/mL Sodium Caprate, PBS pH 8.0
[5] = po, 0.74 mg/kg, PO IntelliCap proximal colon, 8 mg/mL peptide, 10 mg/mL Na CDC, 2 mg/mL Sodium Caprate, PBS pH 8.0
[6] = po, 0.74 mg/kg, PO gavage, 8 mg/mL peptide, 10 mg/mL Na CDC, 2 mg/mL Sodium Caprate, PBS pH 8.0
[7] = iv, 0.01 mg/kg, 0.1 mg/mL peptide in PBS pH 8.0
[8] = sc, 0.01 mg/kg, 0.1 mg/mL peptide in PBS pH 8.0
[9] = Intraduodenal, 1 mg/kg peptide, 0 mg/kg sodium caprate, 0.5 mg/mL in PBS pH 8.0
[10] = 50 mg/kg, pH 8.5, rat, Intraduodenal, 50 mg/kg peptide + 50 mg/kg sodium caprate, PBS pH 8.5
[11] = iv, 0.01 mg/kg, pH 8, rat, 0.01 mg/kg peptide in PBS pH 8.0
[12] = pH 8, rat, Intraduodenal, 1 mg/kg peptide, 0 mg/kg sodium caprate, 0.5 mg/mL in PBS pH 8.0
[13] = pH 8.5, rat, Intraduodenal, 1 mg/kg peptide + 50 mg/kg sodium caprate, PBS pH 8.5
[14] = pH 8.5, rat, Intraduodenal, 10 mg/kg peptide + 50 mg/kg sodium caprate, PBS pH 8.5
[15] = sc, 0.118 mg/kg, Subcutaneous, 0.118 mg/kg peptide in 0.1% BSA-PBS

Work on CC[C@H](C)[C@H](NC(=O)C(C)(Cc1ccccc1)NC(=O)[C@H](CCC(=O)O)NC(=O)[C@H](CCCCNC(=O)COCCOCCNC(=O)COCCOCCNC(=O)CC[C@H](NC(=O)CCCCCCCCCCCCCCCCC(=O)O)C(=O)O)NC(=O)[C@H](C)NC(=O)[C@H](C)NC(=O)[C@H](CCC(=O)O)NC(=O)CNC(=O)[C@H](CCC(=O)O)NC(=O)[C@H](CC(C)C)NC(=O)C(C)(Cc1ccccc1)NC(=O)[C@H](CO)NC(=O)C(C)(CO)NC(=O)[C@@H](NC(=O)[C@H](CC(=O)O)NC(=O)[C@H](CO)NC(=O)[C@@H](NC(=O)C(C)(Cc1ccccc1)NC(=O)[C@H](CO)NC(=O)CNC(=O)[C@H](CCC(=O)O)NC(=O)C(C)(C)NC(=O)[C@@H](N)Cc1c[nH]cn1)[C@@H](C)O)C(C)C)C(=O)N[C@@H](C)C(=O)NC(C)(Cc1ccccc1)C(=O)N[C@H](C(=O)N[C@H](C(=O)NC(C)(CCCCN)C(=O)NCC(=O)NCC(N)=O)C(C)C)C(C)C (stereo partly drawn) [SEQ ID NO: 3, Free-H-[AIB]-EGS-[αMePhe]-TSDV-[αMeSer]-S-[αMePhe]-LEGEAAK[(PEG2)2-γE-Stearate]-E-[αMePhe]-IA-[αMePhe]-VV-[αMeLys]-GG-amide] yielded a Papp A→B ([1]; Caco-2, Example 1, 0.05 mg/mL peptide, ⅛ Lauroglycol FCC:Kolliphor EL:Transcutol HP 5:4:3 (w/w)) of 0.09 ×10⁻⁶ cm/s, a Papp A→B ([1]; Caco-2, Example 1, 0.1 mg/mL peptide, 0.5 mg/mL Tetradecylmaltoside) of 0.05 ×10⁻⁶ cm/s and a Papp A→B ([1]; Caco-2, Example 1, 0.1 mg/mL peptide, 2.5 mg/mL Tetradecylmaltoside) of 0.88 ×10⁻⁶ cm/s. For the same molecule, the Papp A→B ([1]; Caco-2, Example 1, 0.1 mg/mL peptide, 5.0 mg/mL Sodium Chenodeoxycholate) was 6.2 ×10⁻⁶ cm/s, the Papp A→B ([1]; Caco-2, Example 1, 0.1 mg/mL peptide, 10.0 mg/mL Sodium Decanoate) was 0.4 ×10⁻⁶ cm/s and the Papp A→B ([1]; Caco-2, Example 1, 0.1 mg/mL peptide, 12.5 mg/mL Tetradecylmaltoside) was 7.8 ×10⁻⁶ cm/s. It also gave a Papp A→B ([1]; Caco-2, Example 1, 0.1 mg/mL peptide, 25.0 mg/mL Sodium Chenodeoxycholate) of 10.3 ×10⁻⁶ cm/s, a Papp A→B ([1]; Caco-2, Example 1, 0.1 mg/mL peptide, ¼ Lauroglycol FCC:Kolliphor EL:Transcutol HP 5:4:3 (w/w)) of 0.05 ×10⁻⁶ cm/s and a Papp A→B ([1]; Caco-2, Example 2, 0.1 mg/mL peptide, 12.5 mg/mL Dodecylmaltoside) of 6.4 ×10⁻⁶ cm/s. The Papp A→B ([1]; Caco-2, Example 2, 0.1 mg/mL peptide, 12.5 mg/mL Tetradecylmaltoside) was 1.4 ×10⁻⁶ cm/s, the Papp A→B ([1]; Caco-2, Example 2, 0.1 mg/mL peptide, 25.0 mg/mL Sodium Chenodeoxycholate, 12.5 mg/mL Propyl gallate) was 43.1 ×10⁻⁶ cm/s and the bioavailability [2, 4] was 1.14%. For the same molecule, the bioavailability [2, 5] was 3.95%, the bioavailability [2, 6] was 0.19% and the F ([2]; IV, 0.01 mg/kg, 0.1 mg/mL peptide in PBS pH 8.0) was 100%. It also gave an F ([2]; SC, 0.01 mg/kg, 0.1 mg/mL peptide in PBS pH 8.0) of 105.84%, an AUC(0-t) [2, 7] of 1650 ng·h/mL and a Cmax [2, 7] of 140 ng/mL. It also gave a Tmax [2, 7] of 0.5 h, an AUC(0-t) [2, 4] of 1390 ng·h/mL and a Cmax [2, 4] of 60.7 ng/mL. For the same molecule, the Tmax [2, 4] was 0.5 h, the AUC(0-t) [2, 5] was 4840 ng·h/mL and the Cmax [2, 5] was 386 ng/mL. The AUC(0-t) [2, 6] was 228 ng·h/mL, the Cmax [2, 6] was 7.1 ng/mL and the Tmax [2, 6] was 4 h. For the same molecule, the AUC(0-t) [2, 8] was 1750 ng·h/mL, the Cmax [2, 8] was 45.1 ng/mL and the improvement in permeation ([3]; ID, 1 mg/kg peptide, 50 mg/kg sodium caprate (to 0.15%)) was ~5 fold. For the same molecule, the F ([3]; Intraduodenal, 1 mg/kg peptide + 50 mg/kg sodium caprate, PBS pH 8.5) was 0.15%, the F [3, 9] was 0.035% and the F ([3]; Intraduodenal, 10 mg/kg peptide + 50 mg/kg sodium caprate, PBS pH 8.5) was 0.29%. The F ([3]; Intraduodenal, 50 mg/kg peptide + 50 mg/kg sodium caprate, PBS pH 8.5) was 0.71%, the F ([3]; Intravenous, 0.01 mg/kg peptide in PBS pH 8.0) was 100% and the AUC [3, 10] was 46000 ng·h/mL. It also gave a Cmax [3, 10] of 6300 ng/mL, a Tmax [3, 10] of 0.44 h and a half-life ([3]; 50 mg/kg, pH 8.5, rat, Intraduodenal, 50 mg/kg peptide + 50 mg/kg sodium caprate, PBS pH 8.5, read-out: T ½ (converted)) of 8.3 h. The AUC [3, 11] was 1300 ng·h/mL, the Cmax [3, 11] was 210 ng/mL and the Tmax [3, 11] was 0.12 h. It also gave a half-life ([3]; iv, 0.01 mg/kg, pH 8, rat, Intravenous, 0.01 mg/kg peptide in PBS pH 8.0, read-out: T ½ (converted)) of 10 h, an AUC [3, 12] of 45 ng·h/mL and a Cmax [3, 12] of 5.1 ng/mL. For the same molecule, the Tmax [3, 12] was 2.3 h, the half-life ([3]; pH 8, rat, Intraduodenal, 1 mg/kg peptide, 0 mg/kg sodium caprate, 0.5 mg/mL in PBS pH 8.0, read-out: T ½ (converted)) was 8.8 h and the AUC [3, 13] was 200 ng·h/mL. The Cmax [3, 13] was 34 ng/mL, the Tmax [3, 13] was 0.38 h and the half-life ([3]; pH 8.5, rat, Intraduodenal, 1 mg/kg peptide + 50 mg/kg sodium caprate, PBS pH 8.5, read-out: T ½ (converted)) was 9.3 h. The AUC [3, 14] was 3800 ng·h/mL, the Cmax [3, 14] was 470 ng/mL and the Tmax [3, 14] was 0.44 h. For the same molecule, the half-life ([3]; pH 8.5, rat, Intraduodenal, 10 mg/kg peptide + 50 mg/kg sodium caprate, PBS pH 8.5, read-out: T ½ (converted)) was 10 h, the AUC [3, 15] was 11000 ng·h/mL and the Cmax [3, 15] was 460 ng/mL. The Tmax [3, 15] was 9 h, the half-life ([3]; sc, 0.118 mg/kg, Subcutaneous, 0.118 mg/kg peptide in 0.1% BSA-PBS, read-out: T ½ (converted)) was 11 h and the increase of bioavailability ([3]; intraduodenal, 0.71% with 50 mg/kg sodium caprate vs 0.035% without formulation intervention) was ~20 fold. For the same molecule, the bioavailability [3, 9] was 0.035% and the bioavailability ([3]; sc, Subcutaneous, 0.118 mg/kg peptide in 0.1% BSA-PBS) was 71%.
